From patent US20240101963A1, “SC-BETA CELLS AND COMPOSITIONS AND METHODS FOR GENERATING THE SAME” (President and Fellows of Harvard College, priority 2013, published 2024)

Experiments:
Type in all cases: cell-based, human
SC-β cells [1] = experiment: Insulin secretion of plated SC-β cells treated with anti-diabetic drugs in 2 and 20 mM glucose; conditions: SC-β cells treated with drug; trend
Method: FIG. 16A is a schematic illustration of the utility of SC-β cells for treating diabetes or screening drugs to improve function or replication. FIG. 16B is a table listing diabetic drugs investigated and their general therapeutic category. FIG. 16C is a graph showing ELISA measurements of secreted human insulin from plated SC-β cells treated with the indicated drugs in 2 and 20 mM glucose. Indicated p values compare the insulin value in 20 mM glucose between the drug and the control. FIG. 16D is an immunofluorescence image of dispersed and plated SC-β cells stained with DAPI (blue), C-peptide (green), and Ki67 (red) without treatment. FIG. 16E is an immunofluorescence image of dispersed and plated SC-β cells stained with DAPI (blue), C-peptide (green), and Ki67 (red) treated with prolactin for 48 hours. […] FIG. 16G is a graph illustrating fasting blood glucose measurements of Akita mice transplanted with SC-β cells (n=6) or PH cells (n=6). *p<0.05 comparing the two cell groups on the same day. FIG. 16H is a graph illustrating blood glucose measurements from progressively diabetic Akita mice transplanted with SC-β cells or PH cells. Measurements were taken before (white bars) and 20 min after (black bars) a glucose injection of mice transplanted 2 weeks prior. Glucose measurements were saturated at 550 mg/dL. *p<0.05 comparing the two cell groups at the same time post glucose injection. FIG. 16I is a graph showing ELISA measurements of human insulin from the serum of Akita mice 20 min after a glucose injection. Mice were challenged with glucose 2 weeks post transplantation. *p<0.05 comparing the two cell groups. Scale bar=50 μm.
The inventors first tested whether SC-β cells could respond to existing anti-diabetic drugs from several different classes (FIG. 16B). LY2608204 is glucokinase activator in clinical trials while liraglutide, tolbutamide, and nateglinide are examples of GLP-1 agonists and secretagogues (sulfonylureas and meglitinides), respectively, that have been used clinically (Matschinsky, 2009; Modi, 2007; Vetere et al., 2014).

hPSC = experiment: Modified differentiation protocol Steps 3-6: cell survival and marker expression; conditions: for cell survival: Steps 3-5
Source text: (Watanabe, K. et al., Nature Biotechnology 25, 681-686 (2007)).
(Watanabe et al.) Examples of Rock inhibitors include, but are not limited to, Y-27632, Fasudil/HA1077, and H-1152.
In addition to treating the cells with a Rocki inhibitor, the cells in Steps 3-4 can be treated with ActivinA alone or in combination with Nicotinamide.
Staurosporine is known to be an activator of neuronal, glial, and stem cell-like neurosphere differentiation and is also thought to induce apoptosis. (Schumacher, et al., Mol. Cell. Neurosci. 2003; 23(4): 669-680).

SC-β cells [2] = experiment: GSIS of SC-β cells after adding additional factors to CMRL media at last differentiation step (Stage 6); conditions: factor added to CMRL media containing Alk5 inhibitor and T3; versus CMRL only, CMRL+Alk5i+T3 or S3+Alk5i+T3
Source text: To induce the in vitro maturation of at least some of the Pdx1-positive, NKX6-1-positive, insulin-positive endocrine cells into SC-β cells, the Pdx1-positive, NKX6-1-positive, insulin-positive endocrine cells are maintained in a suitable culture medium for a sufficient period of time. […] Adding additional factors to the CMRL media at the last step of differentiation (Stage 6) (FIG. 14A), however, was also found to generate a better glucose stimulated insulin secretion (GSIS) response by SC-β cells as measured by either stimulation index between high and low glucose challenges or by the amount of insulin released. Such additional factors may include, but are not limited to, Sant1, XXI, and SSP. The stimulation index, as calculated by the ratio of insulin secreted in high glucose (15 mM) to low glucose (2.5 mM), was greater for the SC-β cells maintained in a CMRL media containing Alk5 inhibitor, T3 hormone and either Sant1, XXI or SSP than those SC-β cells maintained in only CMRL media, CMRL media containing Alk5 inhibitor and T3 hormone, or S3 media containing Alk5 inhibitor and T3 hormone (FIG. 14B). Furthermore, the amount of insulin secreted was greater for the SC-β cells maintained in a CMRL media containing Alk5 inhibitor, T3 hormone and either Sant1, XXI or SSP than those SC-β cells maintained in only CMRL media, CMRL media containing Alk5 inhibitor and T3 hormone, or S3 media containing Alk5 inhibitor and T3 hormone (FIG. 14C).
Alternatively, Days 21-35: CMRLS+10 μM Alk5i II+1 μM T3+Sant1.
Alternatively, Days 21-35: CMRLS+10 μM Alk5i II+1 μM T3+XXI.
Alternatively, Days 21-35: CMRLS+10 μM Alk5i II+1 μM T3+SSP.

SC-β cells [3] = experiment: β cell replication: C-peptide/Ki67 staining of SC-β cells; conditions: SC-β cells cultured with prolactin (48 hours); untreated 0.20±0.08%
Source text: Next the inventors tested whether SC-β cells could model β cell replication. Increasing a patient's β cell mass may improve glycemic control by producing more insulin in total without needing to increase the amount of insulin produced per β cell. To date, few if any drugs that have promoted β cell replication in rodent or cell line models have been translated to human β cells. […] The inventors tested whether treatment with prolactin could increase β cell replication in a SC-β cell population. After culturing SC-β cells with prolactin, cells were stained and fixed for C-peptide and the proliferation marker Ki67 (FIGS. 16D and 16E). Like primary human β cells, the baseline number of Ki67+ proliferating SC-β cells was very low (0.20±0.08% Ki67+/C-peptide+) (FIG. 16F).
Cells were dispersed and plated onto 96 well plates. After one day of culture, cells were washed in PBS and fixed in 4% PFA for 20 min at RT. Following 3 washes with PBS, cells were blocked for 1 hour at RT in PBS+0.1% Triton X-100+5% donkey serum. […] The percentage of target cell-types was quantified using the Array Scan Cellomics high-content screening system. Here 30 images were acquired per well and quantified. Cells labeled by antibody staining and total cell number (based on DAPI nuclei staining) were quantified to obtain percentages of target cell types.

O=C(Nc1ncc(SCCN2CCCC2)s1)[C@]1(c2ccc(S(=O)(=O)C3CC3)cc2)C[C@H]1C1CCCCC1 [LY2608204] was tested, and the “insulin secretion in vitro following a glucose challenge” value (from here on “insulin secretion”) (SC-β cells [1]) was “increasing insulin secretion”.

With NC(=O)c1cccnc1 [Nicotinamide] the cell survival (hPSC) was “improve cell survival”.

In the case of Cc1nn(-c2ccccc2)c(C)c1/C=N/N1CCN(Cc2ccccc2)CC1 [Sant1], the “amount of insulin secreted” value (SC-β cells [2]) is reported as “greater” and the “stimulation index, ratio of insulin secreted in high glucose (15 mM) to low glucose (2.5 mM)” value (“stimulation index, ratio” below) (SC-β cells [2]) is reported as “greater”.

In the case of C[C@H](NC(=O)Cc1cc(F)cc(F)c1)C(=O)N[C@H]1N=C(c2ccccc2)c2ccccc2N(C)C1=O [XXI], the “amount of insulin secreted” value (SC-β cells [2]) is reported as “greater”, the “stimulation index, ratio” value (SC-β cells [2]) is reported as “greater” and the “NeuroD1+ population” value (hPSC; XXI added to medium with Alk5i and T3 at Steps 5 and 6) is reported as “increase”.

With CC(C)[C@H]1CC[C@H](C(=O)N[C@H](Cc2ccccc2)C(=O)O)CC1 [nateglinide] the “insulin secretion” value (SC-β cells [1]) was “increasing insulin secretion”.

For CN[C@@H]1C[C@H]2O[C@@](C)([C@@H]1OC)n1c3ccccc3c3c4c(c5c6ccccc6n2c5c31)C(=O)NC4 [staurosporine], the “amount of insulin secreted” value (SC-β cells [2]) was “greater”, the “stimulation index, ratio” value (SC-β cells [2]) was “greater” and the “percentage of ChromograninA” value (hPSC; Steps 5-6) was “increasing”. For the same molecule, the “percentage of NKX6-1.C-peptide+ cells” value (hPSC; Steps 5-6) was “increasing”.

With CCCCNC(=O)NS(=O)(=O)c1ccc(C)cc1 [tolbutamide] the “insulin secretion” value (SC-β cells [1]) was “increasing insulin secretion”.

B1: Activin A: growth factor from the TGF-β superfamily (protein, UniProt P08476 311-426, looked up)
Inhibin beta A chain: GLECDGKVNICCKKQFFVSFKDIGWNDWIIAPSGYHANYCEGECPSHIAGTSGSSLSFHSTVINHYRMRGHSPFANLKSCCVPTKLRPMSMLYYDDGQNIIKKDIQNMIVEECGCS
modifications: Inhibin beta A chain
notes: growth factor from the TGF-β superfamily
B1 was tested, and the cell survival (hPSC) was “improve cell survival”.

B2: prolactin: hormone tested for increasing β cell replication (protein, UniProt P01236 29-227, looked up)
Prolactin: LPICPGGAARCQVTLRDLFDRAVVLSHYIHNLSSEMFSEFDKRYTHGRGFITKAINSCHTSSLATPEDKEQAQQMNQKDFLSLIVSILRSWNEPLYHLVTEVRGMQEAPEAILSKAVEIEEQTKRLLEGMELIVSQVHPETKENEIYPVWSGLPSLQMADEESRLSAYYNLLHCLRRDSHKIDNYLKLLKCRIIHNNNC
For B2, the “Ki67+/C-peptide+ cells after prolactin treatment” value (SC-β cells [3]) was 0.39±0.08%.
